# Measurements reported in patent US20110172193A1, “PRO-DRUGS OF (E)-7-(3-(2-AMINO-1-FLUOROETHYLIDENE)PIPERIDIN-1-YL)-1-CYCLOPROPYL-6-FLUORO-8-METHOXY-4-OXO-1,4-DIHYDROQUINOLINE-3-CARBOXYLIC ACID” (priority 2010, published 2011).
# Read-outs that look alike come from different tables or passages of the source.
# Key:
# [1] = test system: Staphylococcus aureus (OC8525), a methicillin-resistant strain (MRSA); test: In vivo efficacy in a mouse systemic infection model; settings: for ED50: Staphylococcus aureus, 72 h, Swiss Webster mice infected i.p. with MRSA, 3 day survival, normalized to parent content
# Procedure: Female Swiss Webster mice weighing between 20-25 g were infected intraperitoneally with approximately 5×10^5 colony forming units (CFU) Staphylococcus aureus (OC8525), a methicillin-resistant strain (MRSA), in 7% mucin. One hour later, the animals were given the test compound intravenously or orally in a dose volume of 0.2 mL. Each animal test group consisted of eight animals. The test compounds were prepared immediately before dosing in 5% dextrose in water (D5W) and diluted further in D5W for i.v. and p.o. administration. The mice were observed over a three day period and ED50 values were calculated from the resulting % survival curves (see Table 13, below). The measured ED50 values were normalized to the content of (E)-7-(3-(2-amino-1-fluoroethylidene)piperidin-1-yl)-1-cyclopropyl-6-fluoro-8-methoxy-4-oxo-1,4-dihydroquinoline-3-carboxylic acid. For some compounds, in vivo efficacy was determined by testing a group of eight mice at a single dose level only. In these cases, the data presented in Table 13, below are reported as percent survival at the designated dose.
# [2] = Aqueous solubility, modified procedure (saturated solutions, RP-HPLC); format: physicochemical; settings: thermodynamic from solid, 100 mM phosphate buffer
# [3] = Clarity of test compound solutions at […] (aqueous solubility); settings: for solubility at 24 h: 50 mM citrate buffer, pH 4, aqueous buffer, thermodynamic from solid; for Aqueous Solubility pH~7 (visual clarity): […] active-form equivalents, pH 7 (50 mM phosphate), after 24 hours
# Procedure: A 50-mg/mL solution of a compound of formula (I) or a compound of formula (II) in H2O was titrated with 0.1 M NaOH until pH reached 5.7-6.1. Any solid that precipitated was filtered. The remaining solutions or phase-separated oil/H2O mixtures were freeze-dried to produce zwitterions as fluffy solids.
# The aqueous solubility of Compounds #14, #15 and #16 were determined by a modified procedure. In these cases, the samples were targeted at a pH of 4 and 7 and were measured exclusively using 100 mM phosphate buffers. For both pH's, measured samples were initially prepared at ˜3 mg/ml and ˜10 mg/ml concentrations and for samples that dissolved rapidly, additional compound was added to the solution until saturated solutions were obtained.
# [4] = In vitro bioconversion of pro-drug to parent drug in mouse blood, plasma, liver and kidney extract; format: in vitro ADME; settings: for Peak Area of pro-drug: 37° C. incubator; for Conversion to the parent compound (summary in words): mouse whole blood, liver/kidney extracts, plasma
# Procedure: Compound concentrations were normalized to parent drug content by multiplying by a ratio of the relative molecular weights. Time 0 (minute) samples were prepared by immediately diluting with an equal volume of acetonitrile, vortexing, and transferring the samples to ice. […] Representative compounds of the present invention and the parent compound were analyzed by reversed-phase HPLC using an Agilent 1100 system. […] The solvent flow rate was 1 mL/min, and the column temperature was 40° C. Compound and parent peak identification was by diode array detection, monitored at 300 nm Conversion of the compounds (prodrugs) to parent drug was estimated by peak areas (A300 nm, mAU) of the respective agents. Mouse whole blood and plasma were collected from Swiss Webster mice, and stored at 4° C. until use (within 48 hours). […] For these experiments, fresh whole mouse livers or kidneys were homogenized for approximately 30 seconds (Omni-Tip™ disposable homogenizer tip) in 1 mL sterile saline and immediately stored on ice. Crude extracts (non-centrifuged) were incubated with the test compound or parent (20 μg/mL) and processed as described above.
# [5] = In vitro bioconversion of pro-drug to parent drug in human blood and plasma; format: in vitro ADME; settings: for Peak Area of pro-drug: 37° C.; for Conversion to the parent compound (summary in words): human whole blood and plasma
# Procedure: Compounds #1, #4, #6, #15, and #16, as well as the parent drug [(E)-7-(3-(2-amino-1-fluoroethylidene)piperidin-1-yl)-1-cyclopropyl-6-fluoro-8-methoxy-4-oxo-1,4-dihydroquinoline-3-carboxylic acid] (the compound of formula (M)) were dissolved to 1 mg/mL, and diluted to 20 ng/mL in fresh, chilled (4° C.) human or mouse whole blood or plasma, or kidney and liver extract (prepared from the respective fresh mouse organs as described below). Compound concentrations were normalized to parent drug content by multiplying by a ratio of the relative molecular weights. Time 0 (minute) samples were prepared by immediately diluting with an equal volume of acetonitrile, vortexing, and transferring the samples to ice. For additional time points, samples were placed in an incubator (Tables 4 and 5), or in a heating block (Tables 6-12) at 37° C. for the indicated time, then immediately vortexed with an equal volume of acetonitrile and placed on ice. Samples were centrifuged and further diluted with an equal volume of water to a final concentration of 25% acetonitrile prior to analysis by HPLC; diluted samples were retained in the cooled (4° C.) HPLC sample injection chamber pending injection.
# Representative compounds of the present invention and the parent compound were analyzed by reversed-phase HPLC using an Agilent 1100 system. Samples were injected onto a Zorbax SB-C18 column (3.5 μM, 4.6×150 mm) with a guard cartridge, and developed on a gradient of 15% aqueous acetonitrile in 0.1% trifluoroacetic acid to 85% aqueous acetonitrile in 0.1% trifluoroacetic acid over 10 minutes. The solvent flow rate was 1 mL/min, and the column temperature was 40° C. Compound and parent peak identification was by diode array detection, monitored at 300 nm Conversion of the compounds (prodrugs) to parent drug was estimated by peak areas (A300 nm, mAU) of the respective agents.
# For studies with Compounds #1, #4 and #6 (with results as listed in Tables 8, 9 and 10), fresh human whole blood and plasma samples were purchased from BioChemed Services, shipped in Styrofoam coolers maintained with frozen cold packs, and used within 48 hours of receipt. For studies with Compounds #15 and #16 (with results as listed in Tables 11 and 12), blood was drawn from volunteers and whole blood samples and isolated plasma prepared and immediately placed on ice. Whole blood and plasma samples were maintained at 4° C. and used within approximately 30 hours.
# [6] = homogenized mouse kidney, 0 min
# [7] = homogenized mouse kidney, 5 min
# [8] = homogenized mouse kidney, 30 min
# [9] = homogenized mouse liver, 30 min
# [10] = oral dose 1 h later, read-out: ED50 p.o.
# [11] = iv, i.v. dose 1 h later, read-out: ED50 i.v.
# [12] = fresh human blood (purchased), 0.0 min
# [13] = fresh human plasma (purchased), 0.0 min
# [14] = fresh human plasma (purchased), 5.0 min
# [15] = fresh human plasma (purchased), 15.0 min
# [16] = fresh human plasma (purchased), 30.0 min
SMILES,solubility at 24 h [3] [µg/mL],Aqueous Solubility pH~7 (visual clarity) [3],"Peak Area of pro-drug ([4]; fresh mouse plasma, 0 min) [mAU]","Peak Area of pro-drug ([4]; fresh mouse plasma, 5 min) [mAU]","Peak Area of pro-drug ([4]; fresh mouse plasma, 30 min) [mAU]","Peak Area of pro-drug [4, 6] [mAU]","Peak Area of pro-drug [4, 7] [mAU]","Peak Area of pro-drug [4, 8] [mAU]","Peak Area of pro-drug ([4]; homogenized mouse liver, 0 min) [mAU]","Peak Area of pro-drug ([4]; homogenized mouse liver, 5 min) [mAU]","Peak Area of pro-drug [4, 9] [mAU]",Conversion to the parent compound (summary in words) [4],"ED50 [1, 10] [mg/kg]","ED50 [1, 11] [mg/kg]","Peak Area of pro-drug [5, 12] [mAU]","Peak Area of pro-drug [5, 13] [mAU]","Peak Area of pro-drug [5, 14] [mAU]","Peak Area of pro-drug [5, 15] [mAU]","Peak Area of pro-drug [5, 16] [mAU]",Conversion to the parent compound (summary in words) [5],also measured
"COc1c(N2CCC/C(=C(\F)CNC(=O)[C@@H](N)CN(C)C)C2)c(F)cc2c(=O)c(C(=O)O)cn(C3CC3)c12.Cl.Cl [Compound 14, 7-{3-[2-((2S)-2-Amino-3-dimethylamino-propionylamino)-1-fluoro-ethylidene]-piperidin-1-yl}-1-cyclopropyl-6-fluoro-8-methoxy-4-oxo-1,4-dihydro-quinoline-3-carboxylic acid dihydrochloride]",–,–,–,–,–,–,–,–,–,–,–,–,–,–,–,–,–,–,–,–,"% Survival ([1]; i.v., at 2.0 mg/kg/day, mice): 12.5% at 2.0 mg/kg/day; solubility at 18 h ([2]; pH 4, aqueous buffer, read-out: Aqueous Solubility pH~4): 6890 µg/mL; solubility at 18 h ([2]; pH 7, aqueous buffer, read-out: Aqueous Solubility pH~7): > 3000 µg/mL"
"COc1c(N2CCC/C(=C(\F)CNC(=O)CN)C2)c(F)cc2c(=O)c(C(=O)O)cn(C3CC3)c12.Cl [Compound 6, 7-{3-[2-(2-Amino-acetylamino)-1-fluoro-ethylidene]-piperidin-1-yl}-1-cyclopropyl-6-fluoro-8-methoxy-4-oxo-1,4-dihydro-quinoline-3-carboxylic acid hydrochloride]",< 3300,No,363,329,281,219,72,11,254,143,34,converted to the parent compound,> 17.6,0.6,369,393,386,399,393,converted to the parent compound,"Peak Area of pro-drug ([5]; fresh human blood (purchased), 3.5 min): 290 mAU; Peak Area of pro-drug ([5]; fresh human blood (purchased), 6.0 min): 188 mAU; Peak Area of pro-drug ([5]; fresh human blood (purchased), 8.5 min): 159 mAU; Peak Area of pro-drug ([5]; fresh human blood (purchased), 11.0 min): 134 mAU; Peak Area of pro-drug ([5]; fresh human blood (purchased), 16.0 min): 95 mAU"
"COc1c(N2CCC/C(=C(\F)CNC(=O)[C@H](C)N)C2)c(F)cc2c(=O)c(C(=O)O)cn(C3CC3)c12.Cl [Compound 4, 7-{3-[2-((2S)-2-Amino-propionylamino)-1-fluoro-ethylidene]-piperidin-1-yl}-1-cyclopropyl-6-fluoro-8-methoxy-4-oxo-1,4-dihydro-quinoline-3-carboxylic acid hydrochloride]",> 3300,No,–,–,–,–,–,–,–,–,–,converted to the parent compound,19.8,0.7,401,442,383,339,268,converted to the parent compound,"Peak Area of pro-drug ([5]; fresh human blood (purchased), 4.0 min): 205 mAU; Peak Area of pro-drug ([5]; fresh human blood (purchased), 6.5 min): 123 mAU; Peak Area of pro-drug ([5]; fresh human blood (purchased), 9.0 min): 79 mAU; Peak Area of pro-drug ([5]; fresh human blood (purchased), 11.5 min): 84 mAU; Peak Area of pro-drug ([5]; fresh human blood (purchased), 16.5 min): 68 mAU"
"COc1c(N2CCC/C(=C(\F)CNC(=O)[C@@H](N)C(C)C)C2)c(F)cc2c(=O)c(C(=O)O)cn(C3CC3)c12.Cl [Compound 1, 7-{3-[2-((2S)-2-Amino-3-methyl-butyrylamino)-1-fluoro-ethylidene]-piperidin-1-yl}-1-cyclopropyl-6-fluoro-8-methoxy-4-oxo-1,4-dihydro-quinoline-3-carboxylic acid hydrochloride]",< 3300,No,298,296,286,222,152,41,235,171,51,converted to the parent compound,9.9,1.3,365,401,386,369,371,converted to the parent compound,"Peak Area of pro-drug ([5]; fresh human blood (purchased), 3.0 min): 339 mAU; Peak Area of pro-drug ([5]; fresh human blood (purchased), 5.5 min): 339 mAU; Peak Area of pro-drug ([5]; fresh human blood (purchased), 8.0 min): 328 mAU; Peak Area of pro-drug ([5]; fresh human blood (purchased), 10.5 min): 289 mAU; Peak Area of pro-drug ([5]; fresh human blood (purchased), 15.5 min): 256 mAU"
